Literature values, collected in patent US20250230478A1, “COMBINATION OF NUCLEIC ACID SEQUENCES ENCODING PROTEINS DERIVED FROM HELICHRYSUM UMBRACULIGERUM, AND ANY […], TISSUE, AND ORGANISM COMPRISING SAME” (YEDA RESEARCH AND DEVELOPMENT CO. LTD., priority 2022, published 2025).

Experiments:
5-HT1A receptor = target: T1, 5-HT1A receptor (Homo sapiens, UniProt P08908)
T1 sequence (P08908 1-422): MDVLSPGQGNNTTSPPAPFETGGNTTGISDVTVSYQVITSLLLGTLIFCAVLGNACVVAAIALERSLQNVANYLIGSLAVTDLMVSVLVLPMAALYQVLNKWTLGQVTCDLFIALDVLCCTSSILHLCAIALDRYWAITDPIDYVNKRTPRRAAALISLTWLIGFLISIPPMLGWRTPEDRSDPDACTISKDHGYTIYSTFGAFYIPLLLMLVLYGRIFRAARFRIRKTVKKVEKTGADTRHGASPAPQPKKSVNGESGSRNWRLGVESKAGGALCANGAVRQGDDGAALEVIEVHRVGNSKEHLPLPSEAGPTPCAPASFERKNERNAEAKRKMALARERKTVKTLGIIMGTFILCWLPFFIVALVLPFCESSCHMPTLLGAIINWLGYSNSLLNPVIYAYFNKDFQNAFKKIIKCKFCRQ

CB1 receptor = CB1 receptor (Homo sapiens, UniProt P21554)
Chain of CB1 receptor (P21554 whole entry): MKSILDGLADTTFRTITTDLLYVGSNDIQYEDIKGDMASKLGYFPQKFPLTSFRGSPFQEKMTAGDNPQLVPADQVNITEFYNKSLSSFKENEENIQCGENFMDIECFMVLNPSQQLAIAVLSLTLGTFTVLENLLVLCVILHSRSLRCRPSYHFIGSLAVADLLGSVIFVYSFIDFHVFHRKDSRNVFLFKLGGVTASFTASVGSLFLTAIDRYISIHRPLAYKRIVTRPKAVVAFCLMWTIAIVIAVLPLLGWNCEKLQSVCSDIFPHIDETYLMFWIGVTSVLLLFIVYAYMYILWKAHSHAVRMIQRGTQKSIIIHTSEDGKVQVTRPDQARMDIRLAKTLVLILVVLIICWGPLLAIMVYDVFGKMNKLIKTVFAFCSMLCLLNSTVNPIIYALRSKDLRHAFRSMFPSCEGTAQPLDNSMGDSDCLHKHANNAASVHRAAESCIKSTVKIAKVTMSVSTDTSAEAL

CCCCCc1cc(O)c(C/C=C(\C)CCC=C(C)C)c(O)c1 [CBG, cannabigerol]
affinity as α2-adrenergic receptor agonist (α2-adrenergic receptor): high affinity | affinity as 5-HT1A receptor antagonist (5-HT1A receptor): moderate affinity | affinity as CB1 receptor antagonist (CB1 receptor): low affinity
